Tests used:
Test in all cases: relative viability (nuclei count vs DMSO), 5 days (fraction); higher = more cells survive
[1] = compound: COc1cc2ncn(-c3cc(OCc4ccccc4C(F)(F)F)c(C(N)=O)s3)c2cc1OC
In short: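 Lung cancer cell lines in 1536-well plates were exposed by pinning to five library-drug doses (not always all listed) √10 apart, following an overnight hold at 37 °C. MetaXpress counted Hoechst-stained nuclei from 4× images taken after 5 days without medium change. Viability is the median ratio of treated-well to vehicle-well nuclei across plates. Plates required control CV below 25% and at least one doubling.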

[2] = compound: COc1cc2ncn(-c3cc(OCc4ccccc4C(F)(F)F)c(C(N)=O)s3)c2cc1OC + CC(=O)c1c(C)c2cnc(Nc3ccc(N4CCNCC4)cn3)nc2n(C2CCCC2)c1=O [Palbociclib] (partner 0.5 µM)
In short: (§1)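 Five library-drug doses in √10 steps were combined with a fixed anchor-drug dose, or a single drug was given alone, by pin tool to lung cancer cell lines in 1536-well plates the day after seeding. Nuclei were stained and counted after 5 days. Relative viability is the nuclei count in treated wells over that in vehicle wells, taken as the median of duplicate plates.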

[3] = compound: COc1cc2ncn(-c3cc(OCc4ccccc4C(F)(F)F)c(C(N)=O)s3)c2cc1OC + COc1cccc2cc(-c3nc([C@H]4CC[C@H](C(=O)O)CC4)n4ncnc(N)c34)[nH]c12 [OSI-027] (partner 0.5 µM)
In short: as §1

[4] = compound: COc1cc2ncn(-c3cc(OCc4ccccc4C(F)(F)F)c(C(N)=O)s3)c2cc1OC + COc1cc2c(Oc3ccc(NC(=O)C4(C(=O)Nc5ccc(F)cc5)CC4)cc3F)ccnc2cc1OCCCN1CCOCC1 [Foretinib] (partner 0.25 µM)
In short: as §1

| Cell Line | relative viability ([1]; 0.05 µM) | relative viability ([1]; 0.1581 µM) | relative viability ([1]; 0.5 µM) | relative viability ([1]; 1.581 µM) | relative viability ([1]; 5 µM) | relative viability ([2]; first compound 0.05 µM) | relative viability ([2]; first compound 0.1581 µM) | relative viability ([2]; first compound 0.5 µM) | relative viability ([2]; first compound 1.581 µM) | relative viability ([2]; first compound 5 µM) | relative viability ([3]; first compound 0.05 µM) | relative viability ([3]; first compound 0.1581 µM) | relative viability ([3]; first compound 0.5 µM) | relative viability ([3]; first compound 1.581 µM) | relative viability ([3]; first compound 5 µM) | relative viability ([4]; first compound 0.05 µM) | relative viability ([4]; first compound 0.1581 µM) | relative viability ([4]; first compound 0.5 µM) | relative viability ([4]; first compound 1.581 µM) | relative viability ([4]; first compound 5 µM) |
| --- | --- | --- | --- | --- | --- | --- | --- | --- | --- | --- | --- | --- | --- | --- | --- | --- | --- | --- | --- | --- |
| NCI-H2347 | 1.05 | 0.932 | 0.848 | 0.564 | 0.501 | 0.373 | 0.413 | 0.397 | 0.377 | 0.375 | 0.488 | 0.492 | 0.326 | 0.308 | 0.375 | 0.966 | 0.916 | 0.98 | 0.651 | 0.428 |
| NCI-H2405 | 1.13 | 0.769 | 0.665 | 0.428 | 0.351 | 0.511 | 0.508 | 0.382 | 0.343 | 0.332 | 0.647 | 0.613 | 0.384 | 0.357 | 0.268 | 0.998 | 0.817 | 0.531 | 0.359 | 0.361 |
| NCI-H3122 | 1 | 0.872 | 0.317 | 0.145 | 0.173 | 0.189 | 0.202 | 0.148 | 0.14 | 0.13 | 1.01 | 0.555 | 0.124 | 0.113 | 0.157 | 0.976 | 0.93 | 0.241 | 0.123 | 0.148 |
| PC-3 [JPC-3] | 1.06 | 0.985 | 0.636 | 0.303 | 0.296 | 0.568 | 0.541 | 0.534 | 0.435 | 0.429 | 0.79 | 0.767 | 0.423 | 0.169 | 0.198 | 0.96 | 0.992 | 0.402 | 0.238 | 0.233 |
| PC-14 | 0.988 | 0.923 | 0.661 | 0.141 | 0.0894 | 0.503 | 0.403 | 0.154 | 0.0334 | 0.0605 | 0.861 | 0.904 | 0.254 | 0.0302 | 0.027 | 0.934 | 0.929 | 0.784 | – | 0.629 |
| RERF-LC-KJ | 0.987 | 1.07 | 0.584 | 0.297 | 0.471 | 1.03 | 1.16 | 0.71 | 0.616 | 0.46 | 0.534 | 0.494 | 0.226 | 0.205 | 0.253 | 0.957 | 0.901 | 0.791 | – | 0.625 |
| SK-LU-1 | 1.05 | 0.871 | 0.603 | 0.261 | 0.233 | 0.404 | 0.355 | 0.349 | 0.212 | 0.214 | 0.33 | 0.332 | 0.168 | 0.196 | 0.188 | 0.811 | 0.765 | 0.32 | 0.219 | 0.206 |
| SK-MES-1 | 1.02 | 0.931 | 0.622 | 0.194 | 0.269 | 0.298 | 0.281 | 0.264 | 0.192 | 0.199 | 0.554 | 0.602 | 0.219 | 0.129 | 0.143 | 0.892 | 0.877 | 0.518 | – | 0.667 |
| SW 1573 | 1.06 | 0.963 | 0.547 | 0.173 | 0.325 | 0.355 | 0.432 | 0.177 | 0.123 | 0.127 | 0.757 | 0.606 | 0.281 | 0.129 | 0.105 | 0.927 | 0.94 | 0.825 | 0.157 | 0.567 |
| UMC-11 | 0.913 | 0.708 | 0.329 | 0.182 | 0.145 | 0.331 | 0.35 | 0.258 | 0.256 | 0.224 | 0.469 | 0.34 | 0.147 | 0.169 | 0.14 | 0.893 | 0.836 | 0.156 | 0.18 | 0.145 |

Source: the supplement of paper PMC10307832
